Experimental data: PubChem BioAssay AID1963850 (Molecular Pharmacology Branch, DTP, NCI, 2024)
pIC50: −log10 of the molar value. Values joined by “and” are separate entries in the source; they are usually repeats but may differ in a detail not shown here. Equal entries are not always repeated.

Test system: 192522-019-R-J2-PDC complex tumor spheroid viability
Experiment: Anticancer human tumor 192522-019-R-J2-PDC patient-derived colon adenocarcinoma cell line growth inhibition [POLQ]
Conditions: for viability, T/C: stronger effect = lower value; for pIC50: curve of compound
Experimental: Multicellular complex tumor spheroid response to Polymerase (POL) inhibitors (novobiocin, ART-558, RP6685) in combination with a variety of drugs and investigational agents in selected tumor cell lines
The POL inhibitors (novobiocin, ART-558, and RP6685) were evaluated both individually and in combination with standard of care and investigational anticancer small molecules within a complex spheroid model of solid tumors. . Complex spheroids include a stromal component modeled by human endothelial cells (HUVEC) and fibroblasts modeled by human mesenchymal stem cells (MSCs). The concentration ranges selected for each drug and investigational agent were based upon clinically achievable concentrations if the clinical Cmax of the agent was known.
Compounds. The drugs and investigational agents: novobiocin (NSC847541), ART-558 (NSC835418), RP-6685 (NSC848927), peposertib (NSC802822), ceralasertib (NSC780249), elimusertib (NSC800525), camonsertib (NSC841442), AZD-1390 (NSC803789), olaparib (NSC753686), talazoparib (NSC767125), rucaparib (NSC756644), sotorasib (NSC818433), MRTX-1133 (NSC836407), SN-38 (NSC673596), topotecan (NSC609699), epotoside (NSC141540), doxorubicin (NSC123127), gemcitabine (NSC613327), 5-fluorouracil (NSC19893), paclitaxel (NSC125973), vemurafenib (NSC761431), MSA-2 (NSC828583), SN-011 (NSC837082), adavosertib (NSC754352), prexasertib (NSC758257), carboplatin (NSC241240) and oxaliplatin (NSC266046), were obtained from the National Cancer Institute (NCI) Developmental Therapeutics Program Chemical Repository (21). The FDA-approved anticancer drug set is available from the Developmental Therapeutics Program at https://dtp.cancer.gov/organization/dscb/obtaining/. […] The stock solutions were prepared in dimethyl sulfoxide (DMSO, Sigma-Aldrich, St. Louis, MO, cat. D2650), except for the platinum compounds which were prepared in saline (Quality Biological, Gaithersburg, MD, cat. 114-055-101), at 800-fold the tested concentration and stored at -70 degrees C prior to their use. All drugs and investigational agents were tested over a range starting from a high concentration at or near the clinical Cmax and decreasing in half-log increments. If the clinical Cmax for an agent had not been determined, the highest concentration tested was 10 microM, except for SN-38, which was tested at a high concentration of 1 microM.
Cell Culture. All cells were maintained in an incubator at 37 degrees C and 5% CO2 with 95% humidity. The PDC lines were cultured according to standard operating procedures established by the NCI PDMR (https://pdmr.cancer.gov). Table 3 of the manuscript, lists the cell lines along with the number of the three cell types plated to form the mct-spheroids and media for tumor cell growth. After thawing, all PDC lines, except 997537-175-T-J1-PDC and 415267-285-R-J2-PDC, were cultured in Matrigel-coated flasks prepared with a working solution of 1X Ham's F-12 nutrient mix, without supplementation (Thermo Fisher Scientific, cat. 11765054), 100 U/mL penicillin-streptomycin (Thermo Fisher Scientific, cat. 15140122), and 2.5% Matrigel (Corning Inc., Corning, NY, cat. 354248) for the first three passages. The two PDC lines 997537-175-T-J1-PDC and 415267-285-R-J2-PDC were cultured on uncoated flasks. The 857933-349-R-J2-PDC line was cultured in 6C/Colon 1B media containing advanced DMEM/F-12 (Thermo Fisher Scientific, cat. 12634028), 10 mM HEPES (Thermo Fisher Scientific, cat. 15630080), 1X GlutaMAX supplement (Thermo Fisher Scientific, cat. 35050061), 0.1 mg/mL primocin (InvivoGen, San Diego, CA, cat. ant-pm-2), 10% defined fetal bovine serum, heat inactivated (HyClone Laboratories Inc., Logan, UT, cat. SH30070.03HI), 50% L-WRN conditioned media (ATCC, cat. CRL-3276), 1.25 mM N-Acetyl-L-cysteine (Sigma-Aldrich, cat. A9165), 10 mM nicotinamide (Sigma-Aldrich, cat. N0636), 1X B-27 supplement (Thermo Fisher Scientific, cat. 17504044), 1X N-2 supplement (Thermo Fisher Scientific, cat. […]
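Further: spheroids exposed to drugs for seven days before reading.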
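Wherever viability, T/C is given: 100% = DMSO vehicle control viability in luminescence.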

Row | SMILES | viability, T/C (compound 0.0316 µM) | viability, T/C (compound 0.1 µM) | viability, T/C (compound 0.316 µM) | viability, T/C (compound 1 µM) | viability, T/C (compound 3.16 µM) | viability, T/C (compound 10 µM) | pIC50 | viability, T/C (compound 0.000316 µM) | viability, T/C (compound 0.001 µM) | viability, T/C (compound 0.00316 µM) | viability, T/C (compound 0.01 µM)
1 | CC1COCCN1c1cc(C2(O)CC3CCC(C2)O3)c2cnn(-c3ccn[nH]3)c2n1 (stereo not drawn) | 108% and 105% and 100% | 70.7% and 76.9% and 78.7% | 42% and 35.6% and 46% | 33.8% and 33.4% and 34.9% | 45.5% and 42.6% and 44.3% | 49.2% and 50.7% and 51.2% | 6.63 and 6.57 |  |  |  | 
2 | CC1COCCN1c1cc(C2(S(C)(=N)=O)CC2)nc(-c2ccnc3[nH]ccc23)n1 (stereo not drawn) | 102% (2×) and 110% | 90% and 103% and 101% | 97% and 97.9% and 103% | 90.6% and 100% and 91.6% | 59.7% and 64.2% and 56.4% | 31.6% and 37.1% and 31.1% | 5.33 and 5.24 and 5.38 |  |  |  | 
3 | CCCS(=O)(=O)Nc1ccc(F)c(C(=O)c2c[nH]c3ncc(-c4ccc(Cl)cc4)cc23)c1F | 96.5% and 100% and 106% | 108% and 104% and 96.8% | 105% and 96.5% and 104% | 106% and 108% and 97.6% | 116% and 106% and 120% | 74% and 82% and 94.8% | < 5.00 |  |  |  | 
4 | CC[C@@]1(O)C(=O)OCc2c1cc1n(c2=O)Cc2cc3c(CN(C)C)c(O)ccc3nc2-1 | 91.9% and 95.4% and 91.8% | 70.9% and 76% and 51.1% |  |  |  |  | < 7.00 | 113% and 103% and 94.6% | 94.3% and 94.9% and 92.1% | 106% and 97.8% and 101% | 100% and 106% and 103%
5 | CCc1c2c(nc3ccc(O)cc13)-c1cc3c(c(=O)n1C2)COC(=O)[C@]3(O)CC | 70.5% and 78% and 56.7% | 56.5% and 58.4% and 51.8% | 44.4% and 42.9% and 32.3% | 27.6% and 37.6% and 25.5% |  |  | 6.89 and 6.70 and 7.30 |  |  | 109% and 91.9% and 85.5% | 
6 | CCc1cc2c(N3CCc4c(cc(Cn5ccnc5)cc4-c4cn(C)nc4C(F)(F)F)C3=O)cc(C)nc2c(OC)n1 | 109% and 107% and 102% | 91.4% and 91% and 94.7% | 80.7% and 86.7% and 85.3% | 80.1% and 82% and 77.7% | 73.1% and 73% and 75.4% | 68.1% and 75.8% and 68.3% | < 5.00 |  |  |  | 
7 | CCc1cc2c(N3CCc4c(cc(Cn5ccnc5)cc4-c4cn(C)nc4C(F)(F)F)C3=O)ccnc2c(OC)n1 | 102% (2×) and 107% | 84.3% and 91.4% and 86.7% | 88.2% and 90.7% and 92.4% | 87.8% and 81.3% and 83.7% | 76.5% and 75.1% and 70.2% | 65.6% and 72.1% and 73% | < 5.00 |  |  |  | 
